Source: patent US20180086789A1, “PHARMACEUTICAL COMPOUND” (VALLAURIX PTE. LTD., priority 2015, published 2018)
Non-standard residues stand in square brackets, D forms with d. hArg = N=C(N)NCCCC[C@H](N)C(=O)O; Nle = CCCC[C@H](N)C(=O)O

How the values were obtained:
tyrosinase = experiment: Effects on tyrosinase activity in human melanocyte culture 1750 (3H-labeled tyrosine); assay type: cell-based
Experimental: The compound with formula structure Ac-Nle-Glu-His-D-Phe-homoArg-Trp-NH2 of the invention was tested using human melanocyte culture coded 1750 that expressed functional MC1R. The melanocytes were plated at a density of 0.3*10^6 cells onto 60 mm dishes (triplicate dishes/group). After 48 hours, the melanocytes were treated every other day for a total of six days with different doses (10^−12 M to 10^−7 M) of the compound. A control without compound was included in the test. […] On treatment day 5, ^3H-labeled tyrosine, the substrate for tyrosinase, was added and 24 hours later, the supernatant was saved to be assayed for tyrosinase activity as described by Suzuki et al (see example 2). Duplicate samples from each were assayed, with triplicate dishes included in each group. Cell number in each dish was counted, and tyrosinase activity was expressed as dpm/10^6 cells and as % of the control. Statistical analysis was carried out using ANOVA followed by Newman Kuels test.
It will be understood that this tyrosinase activation test relates to a late event after MC1R activation, compared to the earlier secondary messenger effect of the above cAMP test. As pointed out above, activity of tyrosinase requires days of treatment.

MC1R = target: T1, MC1R (Homo sapiens, UniProt Q01726); experiment: Effects on cAMP in human melanocyte culture 1753 (radioimmunoassay); assay type: cell-based
T1 construct: human melanocyte culture coded 1753 that expressed functional MC1R; endogenous in cells; host or cells: human melanocyte culture coded 1753
T1 sequence (Q01726 whole entry): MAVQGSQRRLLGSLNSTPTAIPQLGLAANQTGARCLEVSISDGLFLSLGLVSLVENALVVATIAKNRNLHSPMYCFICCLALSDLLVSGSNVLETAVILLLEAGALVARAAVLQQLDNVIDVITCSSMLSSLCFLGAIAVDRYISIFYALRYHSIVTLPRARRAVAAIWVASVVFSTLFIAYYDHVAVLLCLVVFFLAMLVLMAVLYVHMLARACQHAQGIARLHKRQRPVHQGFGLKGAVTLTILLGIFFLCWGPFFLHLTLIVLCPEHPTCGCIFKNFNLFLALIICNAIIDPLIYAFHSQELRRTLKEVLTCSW
Experimental: The compound with formula structure Ac-Nle-Glu-His-D-Phe-homoArg-Trp-NH2 of the invention was tested using human melanocyte culture coded 1753 that expressed functional MC1R. The melanocytes were plated at a density of 0.3*10^6 cells/well. After 48 hours, the melanocytes were treated with different compound concentrations (10^−12 to 10^−7 M) for 1 hour. A control without compound was included in the test. […] The reaction was stopped by addition of 50 μl 1 N HCl and the supernatant in each well was used to measure cAMP using a radioimmunoassay as described by Suzuki 1996 (Suzuki I, Cone R D, Im S, Nordlund J J, Abdel-Malek Z: “Binding of melanotropic hormones to the MC1 receptor on human melanocytes stimulates proliferation and melanogenesis”. Endocrinology 137: 1627-1633, 1996). Duplicate samples from each well were assayed with triplicate wells included in each group. The mean of 6 cAMP measurements per group was expressed as % of the control group. Statistical analysis was carried out using ANOVA followed by Newman Kuels test. In some cases, unpaired t-test was used.

[1] = concentrations from 10^−10 M to 10^−7M

- tyrosinase activity, highest efficacy, % of the control (tyrosinase; 10^−8 M, six days of treatment, human melanocyte culture 1750 expressing functional MC1R): 227%
- tyrosinase activity, efficacy, % of the control (tyrosinase; 10^−9 M, six days of treatment, human melanocyte culture 1750 expressing functional MC1R): 198%
- cAMP, highest efficacy, expressed as % of the control group (MC1R; 10^−7M, 1 hour treatment, human melanocyte culture 1753 expressing functional MC1R): 216%
Substance: Ac-[Nle]EH[dF][hArg]W-NH2 [compound of the invention]
- tyrosinase activity results statistically different compared to the control (p<0.05) (tyrosinase; [1]): statistically different compared to the control
- cAMP results statistically different compared to the control (p<0.05) (MC1R; [1]): statistically different compared to the control
